In patent US9803223B2, “Coryneform bacterium transformant with improved aniline productivity and process for producing aniline using the same” (RESEARCH INSTITUTE OF INNOVATIVE TECHNOLOGY FOR THE EARTH, priority 2013, dated 2017):
“Also recorded” adds a separate entry of the source.

Key:
Escherichia coli HST02 = assay: Growth inhibition experiment in aerobic culture, influence of aniline; format: cell-based; conditions: for growth of Escherichia coli HST02: aerobic culture 37° C., OD610
Method: A growth inhibition experiment in aerobic culture was performed to examine the influence of aniline on Escherichia coli.
Escherichia coli HST02 was applied to LB agar medium (1% polypeptone, 0.5% yeast extract, 0.5% NaCl and 1.5% agar) and was left stand in the dark at 37° C. for 15 hours.
An inoculation loop of the Escherichia coli HST02 grown on a plate as above was inoculated into a test tube containing 10 mL of LB liquid medium (1% polypeptone, 0.5% yeast extract, and 0.5% NaCl), and aerobic culture was performed with shaking at 37° C. for 13 hours.
The Escherichia coli HST02 grown in the above conditions was inoculated into 100 mL of LB liquid medium in such a way that the initial bacterial cell concentration would be OD610=0.1, aniline was added at the same time in such a way that the final concentration would be 0, 20, 40, 60, or 80 mM, and aerobic culture was performed with shaking at 37° C. The growth of the bacterial cells was determined by absorbance measurement at OD610. […] The vertical axis of FIG. 2 indicates OD610.

[1] = test system: Corynebacterium glutamicum R; assay: Influence of aniline addition on aerobic growth; format: cell-based; conditions: for growth of Corynebacterium glutamicum: aerobic culture 33° C., OD610
Method: Corynebacterium glutamicum R was applied to A agar medium (2 g of (NH2)2CO3 7 g of (NH4)2SO4, 0.5 g of KH2PO4, 0.5 g of K2HPO4, 0.5 g of MgSO4.7H2O, 1 mL of 0.06% (w/v) Fe2SO4.7H2O+0.042% (w/v) MnSO4.2H2O, 1 mL of 0.02% (w/v) biotin solution, 2 mL of 0.01% (w/v) thiamin solution, 2 g of yeast extract, 7 g of vitamin assay casamino acid, 40 g of glucose, and 15 g of agar were suspended in 1 L of distilled water) and was left stand in the dark at 33° C. for 15 hours.
An inoculation loop of the Corynebacterium glutamicum R grown on a plate as above was inoculated into a test tube containing 10 mL of A liquid medium (2 g of (NH2)2CO3 7 g of (NH4)2SO4, 0.5 g of KH2PO4, 0.5 g of K2HPO4, 0.5 g of MgSO4.7H2O, 1 mL of 0.06% (w/v) Fe2SO4.7H2O+0.042% (w/v) MnSO4.2H2O, 1 mL of 0.02% (w/v) biotin solution, 2 mL of 0.01% (w/v) thiamin solution, 2 g of yeast extract, 7 g of vitamin assay casamino acid, and 40 g of glucose were suspended in 1 L of distilled water) and was aerobically cultured with shaking at 33° C. for 15 hours.
The Corynebacterium glutamicum R grown in the above conditions was inoculated into 10 mL of A liquid medium in such a way that the initial bacterial cell concentration would be OD610=0.1, aniline was added at the same time in such a way that the final concentration would be 0, 20, 40, 60, or 80 mM, and aerobic culture was performed with shaking at 33° C. The growth of the bacterial cells was determined by absorbance measurement at OD610.
The vertical axis of FIG. 3 indicates OD610.

With Nc1ccccc1 [aniline] as the compound, how does the “growth of Escherichia coli HST02” value (Escherichia coli HST02; 20 mM aniline) read?
Its value is “notably inhibited”.

What about the “growth of Escherichia coli HST02” value (Escherichia coli HST02; 40 mM aniline) of the same compound?
Its value is “significantly inhibited; also recorded: significantly affected”.

What about the “growth of Escherichia coli HST02” value (Escherichia coli HST02; 60 mM aniline) of the same compound?
The value was “completely inhibited”.

And the “growth of Escherichia coli” value (Escherichia coli HST02; aniline level of 20 mM or higher, aerobic culture)?
The value was “greatly affected”.

And the “growth of Corynebacterium glutamicum” value ([1]; 40 mM aniline)?
The value was “hardly affected”.

What about the “growth of Corynebacterium glutamicum” value ([1]; 60 mM aniline) of the same compound?
The value was “able to grow”.

What about the “growth of coryneform bacterium” value ([1]; aniline level increased up to 60 mM, aerobic culture) of the same compound?
Its value is “can grow”.
